The values that follow are results of earlier work, collected in patent US20200171025A1, “PHARMACEUTICAL COMPOSITION COMPRISING BREXPIPRAZOLE AND PROCESS FOR PREPARATION THEREOF” (priority 2018, published 2020).

The conditions of the data set: as per BCS.

On to `O=c1ccc2ccc(OCCCCN3CCN(c4cccc5sccc45)CC3)cc2[nH]1` [Brexpiprazole, 7-{4-[4-(1-Benzothiophen-4-yl)piperazin-1-yl]butoxy}quinolin-2(1H)-one], for which the Aqueous solubility result was “low aqueous solubility” and the Permeability result is given as “high permeability”.
